Data set [1] deals with primary heart muscle cells from newborn rats. In words: Inhibitory activity on heart muscle cell apoptosis (serum-free culture, viable cell number by WST-8). Type of data set: cell-based, Wister rats. The settings on record: Rattus norvegicus, 96 h; mean of three independent experiments; concentration required to increase the mean viable cell number by 50% as compared with that in the absence of test compounds; serum-free Medium 199, 4 days. The text has this:
Inhibitory Activity on Heart Muscle Cell Apoptosis
Newborn rats (within 1 day afterbirth) were obtained from pregnant Wister rats purchased from Charles River, anesthetized under ether, and sterilized with 70% ethanol, and then their hearts were excised with tweezers. The excised hearts were washed with a phosphate-buffered physiological saline (T900; Takara) and cut into pieces with surgical scissors. These tissue pieces were washed 4 to 5 times with a phosphate-buffered physiological saline to remove a majority of blood-derived non-heart muscle cells. To the tissue pieces derived from 10 newborns, 5 ml of enzyme solution (1.25 mg trypsin (Difco) and 0.25 mg collagenase (Sigma) per ml of phosphate-buffered saline (PBS)) was added and the mixture was stirred with a stirrer at 37° C. for 15 minutes. Another 2.5 ml enzyme solution was then added twice repeatedly at a 15-minutes interval. Then, Medium 199 (Gibco) containing 10% fetal calf serum (Biowiker) was added in a half volume of the enzyme solution to terminate the enzyme reaction. The cells were filtered through a Cell Strainer (Falcon) and then centrifuged at 400×g for 5 minutes, whereby the cells were collected.
The cells thus collected from 10 newborns were suspended in 50 ml Medium 199 containing 10% fetal calf serum, plated onto 100 mm Petri dishes (Iwaki) in a volume of 10 ml/dish and cultured for 1 hour in a CO2 incubator set at 5% CO2 and 37° C. The cells were then recovered, filtered through a Cell Strainer and centrifuged at 400×g for 5 minutes to collect the primary heart muscle cells derived from newborn rats.
Then, the heart muscle cells from 10 newborn rats were suspended in 2 ml low-isotonic solution (prepared by dissolving 8.29 g NH4Cl, 1.0 g KHCO3, 37 mg EDTA/2Na (ethylenediaminetetraacetic acid disodium) (Dojindo) in 1 L of water) and left for 3 minutes to disrupt erythrocytes. After 10 ml Medium 199 containing 10% fetal calf serum was added thereto, the primary heart muscle cells from newborn rats were collected by centrifugation at 400×g for 5 minutes. The cells were suspended in Medium 199 containing 10% fetal calf serum and then filtered through a cell strainer. After 0.3% trypan blue was added to, and mildly mixed with, an aliquot of the resulting cell suspension, the number of heart muscle cells was counted on an erythrocyte counting plate.
The primary heart muscle cells from newborn rats were suspended at a density of 3×10^6 cells/ml in Medium 199 containing 10% fetal calf serum, put onto a 96-well plate in a volume of 0.1 ml/well, and then cultured in a CO2 incubator set at 5% CO2 and 37° C. After the plate was stirred with a micromixer (Taiyo Kagaku Kogyo), the medium was exchanged 3 times with serum-free Medium 199, and then test compounds were added thereto. The cells were cultured for additional 4 days to induce apoptosis. Then, fetal calf serum was added thereto at a concentration of 10%, and the cells were further cultured for about 17 hours in a CO2 incubator set at 5% CO2 and 37° C. Finally, the number of viable cells was determined with Cell Counting Kit (Dojindo) using WST-8 (2-(2-methoxy-4-nitrophenyl)-3-(4-nitrophenyl)-5-(2,4-disulfophenyl)-2H-tetrazolium, monosodium salt) as the coloring substrate to determine the inhibition of the heart muscle cell apoptosis.
The above-mentioned experiment was triplicated in an independent manner.
The Mean minimal effective concentration (±SD) was shown for each test compound (Compounds 1 to 5 obtained in Reference Examples) in Table 1. In Table 1, the minimal effective concentration is defined as the concentration required to increase the mean viable cell number by 50% as compared with that in the absence of test compounds.

Where a name gives a salt, the structure may show the parent alone.

A word on the minimal effective concentration: it is the smallest amount tested that counted as effective. Low values mean greater potency, high ones weaker potency. A word on the melting point: it is the temperature of the solid-liquid transition.

`O=C(O)CCOCCCc1ccnc(-c2nc(=O)c3ccccc3s2)c1` [Example 102, 3-[3-[2-(4-Oxo-4H-1,3-benzothiazin-2-yl)-4-pyridyl]propoxy]propanoic acid] had a melting point of 153.8 to 153.9 °C. For the same molecule, the minimal effective concentration in data set [1] turned out to be 0.036 µM.
Turning to `O=C(c1cccc(-c2nc(=O)c3ccccc3s2)n1)N1CCCC1` [Example 104], the melting point was in the range of 232 to 234 °C. Also, in data set [1], the minimal effective concentration is 0.019 µM.
For `O=C(NCC(F)(F)F)c1cccc(-c2nc(=O)c3ccccc3s2)n1` [Example 82, 6-(4-Oxo-4H-1,3-benzothiazin-2-yl)-N-(2,2,2-trifluoroethyl)-2-pyridinecarboxamide], the melting point was 242.6 to 244.2 °C. The molecule further had a minimal effective concentration in data set [1] of 0.011 µM.
In turn, `COCCNC(=O)c1cccc(-c2nc(=O)c3ccccc3s2)n1` [Example 83, N-(2-Methoxyethyl)-6-(4-oxo-4H-1,3-benzothiazin-2-yl)-2-pyridinecarboxamide] came in with a melting point of 175.5 to 176.7 °C. The molecule further came in with a minimal effective concentration in data set [1] of 0.027 µM.
In the same order, the values of `Cc1ccc([S+]([O-])c2cccc(-c3nc(=O)c4ccccc4s3)n2)cc1` (stereo not drawn) [Example 63, 2-{6-[(4-Methylphenyl)sulfinyl]-2-pyridyl}-4H-1,3-benzothiazine-4-one] are 228 to 228.2 °C and 0.046 µM.
For the molecule `COC(=O)c1ccc(-c2nc(=O)c3ccccc3s2)nc1` [Example 28, Methyl 6-(4-oxo-4H-1,3-benzothiazin-2-yl)nicotinate], the minimal effective concentration in data set [1] was 0.025 µM.
On the same count and under the same terms, to `NCCCCCCNC(=O)c1cccc(-c2nc(=O)c3ccccc3s2)n1` [Example 107, N-(6-Aminohexyl)-6-(4-oxo-4H-1,3-benzothiazin-2-yl)-2-pyridinecarboxamide hydrochloride] belongs 0.012 µM.
In turn, `Cc1cccc2c(=O)nc(-c3cccc(C(=O)NCCCCCCNC(=O)OC(C)(C)C)n3)sc12` [Example 234, tert-Butyl 6-[[[6-(8-methyl-4-oxo-4H-1,3-benzothiazin-2-yl)-2-pyridyl]carbonyl]amino]hexylcarbamate] registered a melting point of 170.7 to 171.5 °C.
Regarding `O=C(NCCc1cccc(-c2nc(=O)c3ccccc3s2)n1)Nc1ccccc1` [Example 227, N-[2-[6-(4-Oxo-4H-1,3-benzothiazin-2-yl)-2-pyridyl]ethyl]-N′-phenylurea], the melting point lay in the range of 234.8 to 236.4 °C.
Same read-out and setting: to `O=C(O)CCc1cccc(-c2nc(=O)c3ccc(Cl)cc3s2)n1` [Example 6, 3-[6-(7-Chloro-4-oxo-4H-1,3-benzothiazin-2-yl)-2-pyridyl]propionic acid] belongs 224.4 to 224.7 °C; to `CCCCOc1ccc2sc(-c3ccccn3)nc(=O)c2c1` [Example 116, 6-Butoxy-2-(2-pyridyl)-4H-1,3-benzothiazine-4-one], 160.9 to 161.8 °C; to `CN(C(=O)OC(C)(C)C)c1cccc(-c2nc(=O)c3ccccc3s2)n1` [Example 108, tert-Butyl methyl[6-(4-oxo-4H-1,3-benzothiazin-2-yl)-2-pyridyl]carbamate], 195.6 to 196.3 °C.
On the same count and under the same terms, the result for `Cc1ccc(-c2nc(=O)c3ccccc3s2)n1C` [Example 16, 2-(1,5-Dimethyl-1H-pyrrol-2-yl)-4H-1,3-benzothiazine-4-one] reads 194.3 to 195.7 °C; that for `C[S+]([O-])c1cc(-c2nc(=O)c3ccccc3s2)ccn1` (stereo not drawn) [Example 263, 2-[2-(Methylsulfinyl)-4-pyridyl]-4H-1,3-benzothiazine-4-one], 172.5 to 174 °C.
In turn, `NCc1cccc(-c2nc(=O)c3ccccc3s2)n1` (as salt: trifluoroacetic acid salt) [Example 203, 2-[6-(Aminomethyl)-2-pyridyl]-4H-1,3-benzothiazine-4-one trifluoroacetic acid salt] showed a melting point of 184.5 to 186.5 °C.
For `O=c1nc(-c2cccc(N3CCN(c4ccccc4)CC3)n2)sc2ccccc12` [Example 62, 2-[6-(4-Phenyl-1-piperazinyl)-2-pyridyl]-4H-1,3-benzothiazine-4-one], the melting point was 245.8 °C (dec.).
Still for that read-out and setting: to `O=c1nc(-c2cccc([S+]([O-])CCCc3ccccc3)n2)sc2ccccc12` (stereo not drawn) [Example 165, 2-[6-[(3-Phenylpropyl)sulfinyl]-2-pyridyl]-4H-1,3-benzothiazine-4-one] belongs 164.5 to 165.5 °C.
The same measure, in the same setting: the result for `Cc1cc(C)c2sc(-c3ccccn3)nc(=O)c2c1` [Example 24, 6,8-Dimethyl-2-(2-pyridyl)-4H-1,3-benzothiazine-4-one] reads 245 to 245.8 °C; that for `CC(C)(C)OC(=O)CN1CCN(c2ccnc(-c3nc(=O)c4ccccc4s3)c2)C1=O` [Example 323, tert-Butyl [2-oxo-3-[2-(4-oxo-4H-1,3-benzothiazin-2-yl)-4-pyridyl]-1-imidazolidinyl]acetate], 192.3 to 194 °C.
The same measure, in the same setting: the result for `CC(C)(C)OC(=O)NCCc1ccnc(-c2nc(=O)c3ccc(Cl)cc3s2)c1` [Example 219, tert-Butyl 2-[2-(7-chloro-4-oxo-4H-1,3-benzothiazin-2-yl)-4-pyridyl]ethylcarbamate] reads 168.2 to 169.2 °C.
Turning to `CSCCC(=O)NCc1cccc(-c2nc(=O)c3ccccc3s2)n1` [Example 210, 3-(Methylthio)-N-[[6-(4-oxo-4H-1,3-benzothiazin-2-yl)-2-pyridyl]methyl]propanamide], the melting point was in the range of 191.6 to 192.8 °C.
On the same count and under the same terms, to `CC(C)(C)OC(=O)CCc1cccc(-c2nc(=O)c3ccccc3s2)n1` [Example 78, tert-Butyl 3-[6-(4-oxo-4H-1,3-benzothiazin-2-yl)-2-pyridyl]propanoate] belongs 165.8 to 166 °C; to `O=C(O)/C=C/c1cccc(-c2nc(=O)c3ccccc3s2)n1` [Example 148, (E)-3-[6-(4-oxo-4H-1,3-benzothiazin-2-yl)-2-pyridyl]-2-prop enoic acid], 115.6 to 115.7 °C.
Same read-out and setting: to `CN(CC(=O)O)C(=O)CCc1cccc(-c2nc(=O)c3ccccc3s2)n1` [Example 314, (Methyl{3-[6-(4-oxo-4H-1,3-benzothiazin-2-yl)-2-pyridyl]propanoyl}amino)acetic acid] belongs 194.5 to 194.8 °C; to `Cc1cccc(-c2nc(=O)c3ccccc3s2)n1` [Example 136, 2-(6-Methyl-2-pyridyl)-4H-1,3-benzothiazine-4-one], 169.8 to 170.3 °C.
On the same count and under the same terms, to `CC(C)(C)OC(=O)CCOCc1cccc(-c2nc(=O)c3ccccc3s2)n1` [Example 336, tert-Butyl 3-[(6-(4-oxo-4H-1,3-benzothiazin-2-yl)-2-pyridyl)methoxy]propanoate] belongs 84.7 to 84.9 °C; to `O=C(O)CCc1ccnc(-c2nc(=O)c3ccc(Cl)cc3s2)c1` [Example 185, 3-[2-(7-Chloro-4-oxo-4H-1,3-benzothiazin-2-yl)-4-pyridyl]propionic acid], 262.9 to 263.5 °C; to `CC(C)(C)OC(=O)NCCc1ccnc(-c2nc(=O)c3ccccc3s2)c1` [Example 218, tert-Butyl 2-[2-(4-oxo-4H-1,3-benzothiazin-2-yl)-4-pyridyl]ethylcarbamate], 159.8 to 161 °C.
The molecule `CC(C)(C)OC(=O)/C=C/c1cccc(-c2nc(=O)c3ccccc3s2)n1` [Example 147, tert-Butyl (E)-3-[6-(4-oxo-4H-1,3-benzothiazin-2-yl)-2-pyridyl]-2-propenoate] showed a melting point of 175.5 to 177.6 °C.
Same read-out and setting: to `COC(=O)CSCc1cccc(-c2nc(=O)c3ccccc3s2)n1` [Example 258, Methyl ({[6-(4-oxo-4H-1,3-benzothiazin-2-yl)-2-pyridyl]methyl}thio)acetate] belongs 108 to 110 °C.
Same read-out and setting: to `O=c1nc(-c2ccnc(-c3ccccc3)c2)sc2ccccc12` [Example 75, 2-(2-Phenyl-4-pyridyl)-4H-1,3-benzothiazine-4-one] belongs 162.7 to 163 °C.

(Values after US7767665B2, “1,3-benzothiazinone derivatives and use thereof” (Takeda Pharmaceutical Company Limited, priority 2001, dated 2010).)
